Experimental data published in paper PMC11892739, “Site-specific molecular glues for the 14-3-3/Tau pS214 protein–protein interaction via reversible covalent imine tethering” (RSC Medicinal Chemistry, 2025).

What was measured:
Type in all cases: binding
[1] = target: T1, 14-3-3ζ/SOS1 peptide (Homo sapiens, UniProt P63104); assay: FA peptide screen, 14-3-3ζ titration to client peptide and compound: SOS1; conditions: 250 μM compound, 100 nM peptide; +1 Ala
T1 construct: made in house; host or cells: NiCo21 (DE3) E. coli
T1 sequence (P63104 whole entry, other chains not shown): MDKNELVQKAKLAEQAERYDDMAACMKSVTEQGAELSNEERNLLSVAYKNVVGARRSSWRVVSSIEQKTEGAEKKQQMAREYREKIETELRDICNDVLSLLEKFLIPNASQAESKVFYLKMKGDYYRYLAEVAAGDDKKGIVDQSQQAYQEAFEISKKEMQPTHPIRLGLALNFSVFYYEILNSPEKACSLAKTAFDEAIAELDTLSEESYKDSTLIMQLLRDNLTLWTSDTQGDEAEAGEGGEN
Description: (§1) Since the hub protein 14-3-3 binds to hundreds of phosphoprotein partners, selectivity of PPI stabilization is a major challenge. The interplay of chemical reactivity, and the topology and functionality of the composite binding pocket shaped by 14-3-3 and Tau potentially provide entries towards selective stabilization. […] Here, 14-3-3ζ was titrated to a constant concentration of client peptide (100 nM) and compound (250 μM) to determine the SF250μM values for the particular 14-3-3 PPI. A variety of 14-3-3 binding proteins was represented in this client panel whereby the size and hydrophobicity of the +1 amino acid were varied. […]
(§2) chromatography (HisTrap high performance cartridges, Cytiva). […] Dialyzed protein was concentrated to ∼40 mg/mL, analyzed by Q -Tof LC/MS, and aliquots were flash -frozen for storage at −80 °C. […]
(§3) 0.1% (v/v) Tween20, 0.1% (w/v) BSA). […] Measurements were performed directly after plate preparation, using a Tecan SPARK plate reader at room temperature ( λex: 485±20 nm; λem: 535±25 nm; mirror: automatic; flashes: 30; settle time: 1 ms; gain: optimal; Z -position: calculated from well). […] All data were analyzed using GraphPad Prism (10.0.1) and fitted with a four -parameter logistic model (4PL) to determine binding affinities (dissociation constant, KD). […]
(§4) Fluorescence Anisotropy – peptide screen […]

[2] = target: T2, 14-3-3ζ/p53 peptide (Homo sapiens, UniProt P63104); assay: FA peptide screen, 14-3-3ζ titration to client peptide and compound: p53; conditions: 250 μM compound, 100 nM peptide; +1 Glu
T2 construct: made in house; host or cells: NiCo21 (DE3) E. coli
T2 sequence (P63104 whole entry, other chains not shown): as above
Description: as §1, §2, §3, §4

[3] = target: T3, 14-3-3ζ/CFTR peptide (Homo sapiens, UniProt P63104); assay: FA peptide screen, 14-3-3ζ titration to client peptide and compound: CFTR; conditions: 250 μM compound, 100 nM peptide; +1 Val
T3 construct: made in house; host or cells: NiCo21 (DE3) E. coli
T3 sequence (P63104 whole entry): as the sequence (P63104 whole entry, other chains not shown) above
T3 sequence (P13569 747-774 partner): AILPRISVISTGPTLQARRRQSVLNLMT
Description: as §1, §2, §3, §4

CCc1ccc(-c2nccn2-c2ccc(C=O)c(Br)c2)cc1 [Compound 18] was tested, and the “stabilization of 14-3-3/SOS1 peptide (in words)” value [1] was “minor off-target effects”, the “stabilization of 14-3-3/p53 peptide (in words)” value [2] was “did not show significant stabilizing activity” and the “stabilization of 14-3-3/CFTR peptide (in words)” value [3] was “minor off-target effects”.
